Measured values as given in US11096923B2, “Pharmaceutical composition containing polymyxin B/trimethoprim based therapeutics” (University of Rochester, priority 2016, dated 2021).

Assays:
[1] = test system: P. aeruginosa strain PA01 biofilms; test: Biofilm susceptibility; format: cell-based, Pseudomonas aeruginosa; conditions: established PA01 biofilm, 24 hrs treatment, 32×MIC
Text: Bacterial strains used in these studies include the conventional laboratory strains Pseudomonas aeruginosa PA01 and Staphylococcus aureus UAMS-1, both of which are antibiotic susceptible and capable of forming robust biofilms. See […], Thomas J R, Nelson […]. Role of the accessory gene regulator (agr) in pathogenesis of staphylococcal osteomyelitis. Infection and immunity 1995; 63:3373-3380. Seven clinical keratitis isolates of Pseudomonas aeruginosa, were collected from the Flaum Eye Institute, Rochester N.Y. and 25 clinical isolates of Staphylococcus aureus from geographically distinct regions of the country where purchased from International Health Management Associates (IHMA; Schaumburg, Ill.). […] After 24 hrs the remaining media and non-adherent cells were removed, biofilms were suspended in 0.8% NaCl and plated to quantify surviving bacteria. […] Biofilms were treated in increasing increments ranging from 0 to 64×MIC.

[2] = test system: P. aeruginosa; test: Fractional inhibitory concentration, checkerboard MIC; format: cell-based, Pseudomonas aeruginosa; conditions: for MIC in combination: PT combined with rifampicin; for MIC: Pseudomonas aeruginosa
[3] = test system: S. aureus; test: as above; format: cell-based, Staphylococcus aureus; conditions: for MIC in combination: PT combined with rifampicin; for MIC: Staphylococcus aureus
[4] = test system: P. aeruginosa PAO1; test: Selleck library screen in presence of sub-inhibitory polymyxin B/trimethoprim; format: cell-based, Pseudomonas aeruginosa; design: key: Growth (+); no growth (−)
Protocol: (§1) To identify agents that potentiate the antimicrobial activity of polymyxin B/trimethoprim we first determined the highest concentration of the polymyxin B/trimethoprim combination that allowed growth of P. aeruginosa strain PAO1 and S. aureus strain UAMS-1.
For Selleck library screening, individual wells of 96-well microtiter plates containing 88 μl of fresh media were inoculated with approximately 10^5 CFUs of P. aeruginosa strain PAO1 or S. aureus UAMS-1. Next, 2 μl of polymyxin B/trimethoprim was added to a final concentration of 0.2 μg ml^−1 or 1.25 μg ml^−1 for PA01 and UAMS-1, respectively. Library members were then added at either 5 μM or 50 μM final concentration. Plates were incubated at 37° C. for 16 hours and hits were identified as wells with no visible growth. […]

[5] = test system: S. aureus UAMS-1; test: as above; format: cell-based, Staphylococcus aureus; design: key: Growth (+); no growth (−)
Protocol: as §1
For Selleck library screening, individual wells of 96-well microtiter plates containing 88 μl of fresh media were inoculated with approximately 10^5 CFUs of P. aeruginosa strain PAO1 or S. aureus UAMS-1. Next, 2 μl of polymyxin B/trimethoprim was added to a final concentration of 0.2 μg ml^−1 or 1.25 μg ml^−1 for PA01 and UAMS-1, respectively. Library members were then added at either 5 μM or 50 μM final concentration. Plates were incubated at 37° C. for 16 hours and hits were identified as wells with no visible growth.
To do so, 10^5 CFUs of S. aureus strain UAMS-1 were inoculated in individual wells of a microtiter plate supplemented with 1.2 μg ml^−1 of polymyxin B/trimethoprim, (0.25×MIC). Library members were added at low (5 μM) or high (50 μM) concentrations and then scored for agents that inhibited growth following overnight incubation. Such agents were expected to represent compounds that display antimicrobial activity on their own and/or that potentiate the antimicrobial activity of polymyxin B/trimethoprim.

[6] = test system: planktonic P. aeruginosa cells; test: Antimicrobial kill curves; format: cell-based, Pseudomonas aeruginosa; conditions: 2× MIC, 4 hours post-treatment
Protocol: Overnight cultures of the indicated organism were used to inoculate (1:100 dilution) 100 ml of fresh media and grown to mid-exponential phase. […] Aliquots were taken at 1, 2, 3, 4, and 24 hours, serial diluted and plated for colony forming units.

CO[C@H]1/C=C/O[C@@]2(C)Oc3c(C)c(O)c4c(O)c(c(/C=N/N5CCN(C)CC5)c(O)c4c3C2=O)NC(=O)/C(C)=C\C=C\[C@H](C)[C@H](O)[C@@H](C)[C@@H](O)[C@@H](C)[C@H](OC(C)=O)[C@@H]1C [Rifampicin, rifampicin]
3.9 mg/L: MIC in combination ([2]; P. aeruginosa RW03)
0.0015 mg/L: MIC in combination ([3]; S. aureus 1071788) | MIC in combination ([3]; S. aureus 1094094) | MIC in combination ([3]; S. aureus 1094140) | MIC in combination ([3]; S. aureus 1094147) | MIC in combination ([3]; S. aureus 1094166) | MIC in combination ([3]; S. aureus 1097630) | MIC in combination ([3]; S. aureus 1103430) | MIC in combination ([3]; S. aureus 1122181) | MIC in combination ([3]; S. aureus 1122197) | MIC in combination ([3]; S. aureus 1132822) | MIC in combination ([3]; S. aureus 1142776) | MIC in combination ([3]; S. aureus UAMS-1)
31.2 mg/L: MIC ([2]; P. aeruginosa RW05)
−: P. aeruginosa growth, 5 μM ([4]; drug 5 μM in presence of 0.2 μg ml^−1 polymyxin B/trimethoprim) | P. aeruginosa growth, 50 μM ([4]; drug 50 μM in presence of 0.2 μg ml^−1 polymyxin B/trimethoprim) | S. aureus growth, 5 μM ([5]; drug 5 μM in presence of 1.2 μg ml^−1 polymyxin B/trimethoprim) | S. aureus growth, 50 μM ([5]; drug 50 μM in presence of 1.2 μg ml^−1 polymyxin B/trimethoprim)
0.05 mg/L: MIC ([3]; S. aureus 1097612) | MIC ([3]; S. aureus 1101442) | MIC ([3]; S. aureus 1110936) | MIC ([3]; S. aureus 1122187) | MIC ([3]; S. aureus 1122190) | MIC ([3]; S. aureus 1125120) | MIC ([3]; S. aureus 1144105)
0.0035 mg/L: MIC in combination ([3]; S. aureus 1097612) | MIC in combination ([3]; S. aureus 1101442) | MIC in combination ([3]; S. aureus 1110936) | MIC in combination ([3]; S. aureus 1122187) | MIC in combination ([3]; S. aureus 1122190) | MIC in combination ([3]; S. aureus 1144105)
0.1 mg/L: MIC ([3]; S. aureus 1094178) | MIC ([3]; S. aureus 1111063)
0.0076 mg/L: MIC in combination ([3]; S. aureus 1094178) | MIC in combination ([3]; S. aureus 1111063) | MIC in combination ([3]; S. aureus 1125120)
6 log: reduction in CFU at hour 4 [6]
1.9 mg/L: MIC in combination ([2]; P. aeruginosa PAO1) | MIC in combination ([2]; P. aeruginosa RW01) | MIC in combination ([2]; P. aeruginosa RW02) | MIC in combination ([2]; P. aeruginosa RW04) | MIC in combination ([2]; P. aeruginosa RW05) | MIC in combination ([2]; P. aeruginosa RW06) | MIC in combination ([2]; P. aeruginosa RW07)
0.01 mg/L: MIC ([3]; S. aureus 1071788) | MIC ([3]; S. aureus 1094094) | MIC ([3]; S. aureus 1094140) | MIC ([3]; S. aureus 1094147) | MIC ([3]; S. aureus 1094166) | MIC ([3]; S. aureus 1097630) | MIC ([3]; S. aureus 1103430) | MIC ([3]; S. aureus 1122181) | MIC ([3]; S. aureus 1122197) | MIC ([3]; S. aureus 1132822) | MIC ([3]; S. aureus 1142776) | MIC ([3]; S. aureus UAMS-1)
5 log: reduction in biofilm-associated CFU [1]
15.6 mg/L: MIC ([2]; P. aeruginosa RW01) | MIC ([2]; P. aeruginosa RW02) | MIC ([2]; P. aeruginosa RW03) | MIC ([2]; P. aeruginosa RW04) | MIC ([2]; P. aeruginosa RW06) | MIC ([2]; P. aeruginosa RW07) | MIC ([2]; PAO1, P. aeruginosa PAO1)
